# According to US10632132B2, “Methods for treating heart transplant rejection” (priority 2018, dated 2020):
# Key:
# [1] = test system: fully mismatched heterotopic heart allograft; assay: Fully mismatched heterotopic heart allograft survival in rats; type: in vivo, rat (Lewis 1W donor, Lewis 1A receptor); details: rat; SANA 100 mg/kg or 50 mg/kg by oral gavage daily from day −1 to day 15 post-transplantation; compared with control (vehicle) and precursor drug SA 100 mg/kg; FIG. 3
# Procedure: (§1) While not wishing to be bound by theory, NLRP3 inflammasome activation is a mechanism that mediates the rejection of allotransplantation and in one embodiment of the described invention, it is a possible therapeutic target to treat allotransplantation of a heart. […] C57BL/6 mice were treated with SANA or salicylic acid (SA) (100 mg/kg, IP) or the vehicle (DMSO) for 1 hour. Then were injected with LPS (10 mg/kg, IP) or PBS for 2 hours, with subsequent peritoneal washes and blood extractions. Peritoneal wash and plasma were stored to measure IL-1β by ELISA. […] Rats were administrated with SANA or SA (100 mg/kg), SANA (50 mg/kg) or vehicle (Phosphate buffer) by oral gavage every day since day −1 until day 15 post-transplantation. Heart heterotopic transplantation was done by implantation of the donor heart (Lewis 1W rat) into the receptor abdomen (Lewis 1A rat). Rejection was diagnosed when the heart lost functionality (beats has stopped).
# [2] = test system: NF-κB and NLRP3 inflammasome-dependent IL-1β release; assay: LPS-induced IL-1β release in mice, measured by ELISA in plasma and peritoneal wash; type: in vivo; details: C57BL/6 mice, 100 mg/kg IP for 1 hour, then LPS 10 mg/kg IP for 2 hours
# Procedure: as §1
structure (smiles),measurement,setting,value
"O=C(O)c1cc(/C=C/[N+](=O)[O-])ccc1O [SANA, 2-hydroxy-5-(2-nitroethenyl)benzoic acid]",heart graft survival (rejection = heart beats stopped),[1],prolonged the heart grafted survival
same,effect on NF-κB and NLRP3 inflammasome-dependent IL-1β release in the peritoneum,"[2]; peritoneal wash, FIG. 2",inhibitory effect
same,effect on NF-κB and NLRP3 inflammasome-dependent IL-1β release in the plasma,"[2]; plasma, FIG. 1",inhibitory effect
